Data reported in PubChem BioAssay (NCI).
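48-hour exposure; five concentrations; linearly interpolated endpoints. GI50 = concentration required for 50% inhibition of growth. TGI: total growth inhibition.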

Tests used:
Experiment in all cases: NCI anticancer screen, dose series, 48 h
[1] = system: A498 renal
[2] = system: HCC-2998 colon
[3] = system: MALME-3M melanoma
[4] = system: MOLT-4 leukemia
[5] = system: NCI-H460 lung
[6] = system: NCI-H522 lung
[7] = system: OVCAR-8 ovarian
[8] = system: SK-MEL-2 melanoma
[9] = system: SW-620 colon
[10] = system: TK-10 renal

SMILES | GI50 [1] | TGI [1] | GI50 [2] | TGI [2] | GI50 [3] | TGI [3] | GI50 [4] | TGI [4] | GI50 [5] | TGI [5] | GI50 [6] | TGI [6] | GI50 [7] | TGI [7] | GI50 [8] | TGI [8] | GI50 [9] | TGI [9] | GI50 [10] | TGI [10]
COc1ccc(-c2nc3sc4c(c3c(=O)[nH]2)CCCCCC4)cc1 | 0.897 µM | > 33.2 µM | > 33.2 µM | > 33.2 µM | 3.72 µM | > 33.2 µM | 31.6 µM | > 33.2 µM | 2.26 µM | > 33.2 µM | 2.55 µM | > 33.2 µM | 3.9 µM | > 33.2 µM | 2.83 µM | 23.5 µM | 1.81 µM | > 33.2 µM | > 33.2 µM | > 33.2 µM
O=C(N/C(=C\c1ccc2c(c1)OCO2)c1nc2ccccc2[nH]1)c1ccccc1 |  | > 93.8 µM |  | > 87.3 µM |  | > 89.7 µM |  | 56.9 µM |  | > 100 µM |  | 61 µM |  | > 100 µM |  | 55.9 µM |  | > 100 µM |  | 92.3 µM
CC1=Nc2ccccc2S/C1=C(/C)NNC(=O)C(N)=O |  | > 100 µM |  | > 100 µM |  | > 100 µM |  | > 100 µM |  | > 100 µM |  | > 100 µM |  | > 100 µM |  | > 100 µM |  | > 100 µM |  | > 100 µM
CCc1ccccc1NC(=O)C(=O)CC(=O)c1sc(Nc2ccccc2)nc1C |  | > 100 µM |  | > 100 µM |  | > 100 µM |  | > 100 µM |  | > 100 µM |  | > 100 µM |  | > 100 µM |  | > 100 µM |  | > 100 µM |  | > 100 µM
O=c1cc(-c2ccccc2)[nH]c2ccccc12 | 0.428 µM | 33 µM | 0.639 µM |  | > 100 µM | > 100 µM | 0.703 µM | > 100 µM | 0.398 µM | > 50.9 µM | 0.439 µM | > 46.7 µM | 4.18 µM | > 100 µM | > 100 µM | > 100 µM | 0.379 µM | > 100 µM |  | > 100 µM
OC(c1cc(-c2ccccc2)nc2ccc(Cl)cc12)C1CCCCN1 (stereo unspecified) | 6.22 µM | 20.3 µM | 1.83 µM | 3.34 µM | 1.99 µM | 3.88 µM | 2.51 µM | 6.2 µM | 1.89 µM | 3.61 µM | 2.11 µM | 4.53 µM | 2.55 µM | 6.38 µM | 2.45 µM | 5.02 µM | 1.94 µM | 3.69 µM | 4.06 µM | 16.2 µM
CN1CCC(n2cnc(-c3ccc(F)cc3)c2-c2ccnc(NCCO)n2)CC1 | 14.8 µM | > 25 µM | > 25 µM | > 25 µM | 23.8 µM | > 25 µM | > 25 µM | > 25 µM | 9.54 µM | > 25 µM | > 17.7 µM | > 25 µM | 18.4 µM | > 25 µM | > 25 µM | > 25 µM | 15.8 µM | > 25 µM | > 20.3 µM | > 25 µM
CN(C)CCCNC(CC#N)CCC#N (stereo unspecified) |  | > 10 µM |  | > 10 µM |  | > 10 µM |  | > 10 µM |  | > 10 µM |  | > 10 µM |  | > 10 µM |  | > 10 µM |  | > 10 µM |  | > 10 µM
CC(C)c1cc(-c2n[nH]c(=O)n2-c2ccc3c(ccn3C)c2)c(O)cc1O | 0.0534 µM | 14 µM | 0.0256 µM | 2.77 µM | < 0.0167 µM | < 0.031 µM | < 0.0177 µM |  | < 0.0157 µM | 13.9 µM | < 0.0205 µM | 17.1 µM | < 0.0232 µM | > 83.7 µM |  | 25.7 µM | < 0.013 µM | 24.5 µM | < 0.0271 µM | 37 µM
CCOC(=O)COc1ccccc1/C=C1\CCC(CN(C)C)C1=O (stereo unspecified) |  | 31.3 µM |  | 7.98 µM |  | 12 µM |  | 4.61 µM |  | 33.7 µM |  | 6.01 µM |  | 15.1 µM |  | 24.7 µM |  | 6.64 µM |  | 25.6 µM
N#C/C(=C\c1ccc(O)c(O)c1)C(N)=S |  | > 100 µM |  | > 100 µM |  | > 100 µM |  | > 100 µM |  | > 100 µM |  | 75.9 µM |  | > 100 µM |  | > 100 µM |  | > 100 µM |  | > 100 µM
CC1C=C(OC(=O)c2ccccc2)C(=O)C(n2cc(F)c(=O)[nH]c2=O)O1 (stereo unspecified) |  | > 100 µM |  | > 100 µM |  | > 100 µM |  | > 100 µM |  | > 100 µM |  | > 100 µM |  | > 100 µM |  | > 100 µM |  | > 100 µM |  | > 100 µM
COc1ccc(-c2c3c(N)nc(-c4ccncc4)nc3nc3c2c(C)nn3-c2ccccc2)cc1 | 12.3 µM | > 100 µM | > 100 µM | > 100 µM | 14.5 µM | > 100 µM | 8.58 µM | > 100 µM | 3.3 µM | > 100 µM | 4.94 µM | 53.5 µM | 7.11 µM | > 100 µM | 31 µM | > 100 µM | 4.36 µM | > 100 µM | 3.71 µM | 14.6 µM
Cc1c(C(=O)C/C(=N\O)C(=O)Nc2cc(Cl)c(Cl)cc2Cl)[n+](=O)c2ccccc2n1[O-] |  | 56.2 µM |  | 23.5 µM |  | 21.1 µM |  | 32.8 µM |  | 35.2 µM |  | 16.2 µM |  | 40.7 µM |  | 34.8 µM |  | 9.74 µM |  | 72.2 µM
CC1SC2=NC3=C(c4ccccc4C3=O)C(c3ccc(F)cc3)N2C1=O (stereo unspecified) |  | > 100 µM |  | > 100 µM |  | > 100 µM |  | > 100 µM |  | > 100 µM |  | > 100 µM |  | > 100 µM |  | > 100 µM |  | > 100 µM |  | > 100 µM
